Experimental data as given in US9452154B2, “Methods for treating HCV” (Gilead Sciences, Inc., priority 2010, dated 2016).
“And” between values parts separate entries of the source, which are not always exact repeats. Identical values can stand only once. Like-named read-outs stand apart in the source and are kept apart here.

How the values were obtained:
HCV genotype 1a replicon [1] = assay: Biological Example 3: HCV genotype 1a replicon assay, EC50; format: cell-based; conditions: Hepatitis C virus, 72 h, 3 days, read-out: EC50
Method: The HCV genotype 1a replicon cell line used in this study was described previously. The cells were grown in cell culture medium containing Dulbecco's Modified Eagle Medium (DMEM) with GlutaMAX (Gibco, Carlsbad, Calif., Cat#10569-044), supplemented with 10% FBS (HyClone, Logan, Utah, Cat#SH30071.03), 100 Units/mL Penicillin, 100 μg/mL Streptomycin (Gibco, Carlsbad, Calif., Cat#15140-122), and 0.1 mM non-essential amino acids (Gibco, Carlsbad, Calif., Cat#11140-050). Replicon cells were maintained in 0.5 mg/mL Geneticin (Invitrogen, Carlsbad, Calif., Cat#10131-035) to prevent the loss of HCV replicon. The cells were passaged every 3-4 days before reaching confluency.
(§1) [formula] where XC is the fluorescence signal from the compound-treated well; MB is the average fluorescence signal from puromycin-treated wells; MD is the average fluorescence signal from DMSO-treated wells. The anti-HCV replication activity was determined by the luminescence signal generated from the reporter renilla luciferase of the HCV replicon. The percent inhibition on HCV replicon was calculated using equation 1, where XC is the luminescence signal from compound-treated well; MB is average luminescence signal from the ITMN-191-treated wells; MD is the average luminescence signal from DMSO-treated wells.
(§2) Both CC50 and EC50 values were obtained using Pipeline Pilot 5.0 software package (Accelrys, San Diego, Calif.) by nonlinear regression fitting of experimental data to equation 2: […]

[2] = Biological Example 3: cytotoxicity (calcein AM), CC50; format: cell-based; conditions: human, Huh-7 cells carrying a HCV genotype 1a replicon; HCV genotype 1a replicon cells; calcein AM
Method: The HCV replicon assay was a multiplex assay which can assess both cytotoxicity and anti-replicon activity from the same well. The CC50 assay was performed first.
The cytotoxicity effect was determined by calcein AM conversion to fluorescent product. The percent cytotoxicity was calculated by equation 1:
as §1, §2

GT-1b Huh-lunet cells = assay: Biological Example 4: antiviral combination studies with Compound 5 (MacSynergy II); format: cell-based, HCV; conditions: in combination with Compound 5, 1b replicon cells
HCV 1b replicon system = assay: Biological Example 5: antiviral combination studies with Compound 6 (MacSynergy II); format: cell-based; conditions: in combination with Compound 6
[3] = tested on: Genotype 1b replicon cells; assay: Biological Example 6: compound concentration required to suppress replicon RNA by 1-1.5 log over 6 days (QRT-PCR); format: cell-based, HCV; conditions: 6 day assay
Method: Flasks were incubated at 37° C., media and compounds were refreshed every two days. After 6 days of incubation the replicon cells were collected for RNA extraction and replicon RNA QRT-PCR analysis.

[4] = tested on: GT1b and GT1a mutant replicons; assay: Biological Example 8: summary of cross resistance of mutant replicons; format: cell-based, HCV
Method: (§3) GT1b and GT1a replicons carrying Renilla Luciferase reporter were used to generate the mutant replicons. The mutations were introduced into the replicon construct by site-directed mutagenesis and confirmed by sequencing. Mutant replicon RNAs were generated from DNA by in vitro transcription and transfected into Huh-7 Lunet or C1 cells
(§4) Compounds were serially diluted 1:3 in 100% DMSO (Sigma). These serial dilutions were added to the cells at a 1:200 dilution to achieve a final concentration of 0.5% DMSO in a total volume of 200 μL. […] EC50 values were calculated using Prism.
(§5) For comparison, a fold change of 0-3 is considered “sensitive”, a fold change of 3-10 is considered “low”, a fold change of 10-50 is considered “medium” and a fold change of greater than […] is considered “high”.

[5] = Drug-drug interaction: exposure on co-administration with Compound 2
[6] = tested on: Huh-7 cells carrying a HCV genotype 1a replicon; assay: Biological Example 3: cytotoxicity in combination studies (MacSynergy II)
HCV genotype 1a replicon [7] = assay: Biological Example 3: antiviral combination studies with Compound 4 (MacSynergy II); conditions: in combination with Compound 4
[8] = tested on: NS3 GT1a mutant replicons; format: cell-based, HCV
Method: as §3, §4, §5

[9] = tested on: NS3 GT1b mutant replicons; format: cell-based, HCV
Method: as §3, §4, §5

[10] = human; 800 mg/day; cited from earlier work
[11] = all single NS3 PI-resistant mutants
[12] = triple class mutants that confer resistance to PI, NS5A and Compound 1

With `Fc1ccccc1-c1nc2ccn(Cc3ccc(-c4ccc(C(F)(F)F)cc4C(F)(F)F)nn3)cc-2n1` [Compound 1, 5-((6-(2,4-bis(trifluoromethyl)phenyl)pyridazin-3-yl)methyl)-2-(2-fluorophenyl)-5H-imidazo[4,5-c]pyridine] the EC50 (HCV genotype 1a replicon [1]) was 0.019 ± 0.008 µM, the CC50 at 3 days [2] was > 44.4 µM and the “Antagonism Volume” value (GT-1b Huh-lunet cells) was 0 ± 0 nM^2. The “Synergy Volume” value (GT-1b Huh-lunet cells) was 70 ± 26 nM^2, the “Antagonism Volume” value (HCV 1b replicon system) was −17 ± 0.7 nM^2 and the Interaction (HCV 1b replicon system) was “Minor Synergy”. For the same compound, the “Synergy Volume” value (HCV 1b replicon system) was 34 nM^2 and 34 ± 9.9 nM^2, the “Compound concentration able to induce replicon RNA 1-1.5 log drop” value [3] was 10 nM and the susceptibility of mutants [4, 11] was “full susceptibility”. For the same compound, the “increase of exposure when combined with Compound 2” value [5] was 2-3 ×, the “Antagonism Volume (cytotoxicity)” value ([6]; in combination with Compound 4) was 0 ± 1 nM^2% and the “Interaction (cytotoxicity)” value ([6]; in combination with Compound 4) was “Additivity (Additivity: ≦25 and >−25 nM^2%)”. For the same compound, the “Synergy Volume (cytotoxicity)” value ([6]; in combination with Compound 4) was 13 ± 11 nM^2%, the “Antagonism Volume” value (HCV genotype 1a replicon [7]) was −1 ± 2 nM^2% and the “Synergy Volume” value (HCV genotype 1a replicon [7]) was 34 ± 26 nM^2%.
For `CC(C)OC(=O)[C@H](C)N[P@](=O)(OC[C@H]1O[C@@](C#N)(c2ccc3c(N)ncnn23)[C@](C)(O)[C@@H]1OC(=O)C(C)C)Oc1ccccc1` [Compound 4], the CC50 at 3 days [2] was > 44.4 µM, the “Compound concentration able to induce replicon RNA 1-1.5 log drop” value [3] was 1000 nM and the “fold change in EC50 vs wild-type GT1a” value ([8]; mutant A156T) was 0.2 fold. The “fold change in EC50 vs wild-type GT1a” value ([8]; mutant D168A) was 0.9 fold, the “fold change in EC50 vs wild-type GT1a” value ([8]; mutant D168E) was 1.5 fold and the “fold change in EC50 vs wild-type GT1a” value ([8]; mutant D168G) was 0.8 fold. The “fold change in EC50 vs wild-type GT1a” value ([8]; mutant D168H) was 1.0 fold, the “fold change in EC50 vs wild-type GT1a” value ([8]; mutant D168N) was 1.0 fold and the “fold change in EC50 vs wild-type GT1a” value ([8]; mutant D168V) was 1.4 fold. For the same compound, the “fold change in EC50 vs wild-type GT1a” value ([8]; mutant D168Y) was 1.0 fold, the “fold change in EC50 vs wild-type GT1a” value ([8]; mutant R155I) was 0.6 fold and the “fold change in EC50 vs wild-type GT1a” value ([8]; mutant R155K) was 0.7 fold. For the same compound, the “fold change in EC50 vs wild-type GT1a” value ([8]; mutant R155K + L31M) was 0.4 fold, the “fold change in EC50 vs wild-type GT1a” value ([8]; mutant R155K + L31M + Y448H) was 0.6 fold and the “fold change in EC50 vs wild-type GT1a” value ([8]; mutant R155K + M28T) was 0.2 fold. The “fold change in EC50 vs wild-type GT1a” value ([8]; mutant R155K + M28T + Y448H) was 0.3 fold, the “fold change in EC50 vs wild-type GT1a” value ([8]; mutant R155K + Q30H + Y448H) was 0.9 fold and the “fold change in EC50 vs wild-type GT1a” value ([8]; mutant R155K + Q30R) was 0.9 fold. For the same compound, the “fold change in EC50 vs wild-type GT1a” value ([8]; mutant R155K + Y93H) was 0.3 fold, the “fold change in EC50 vs wild-type GT1a” value ([8]; mutant R155K + Y488H (first line, r20)) was 0.7 fold and the “fold change in EC50 vs wild-type GT1a” value ([8]; mutant R155K + Y488H (second line, r26)) was 0.5 fold. The “fold change in EC50 vs wild-type GT1a” value ([8]; mutant R155M) was 0.4 fold, the “fold change in EC50 vs wild-type GT1a” value ([8]; mutant R155S) was 0.2 fold and the “fold change in EC50 vs wild-type GT1a” value ([8]; mutant R155T) was 0.2 fold. The “fold change in EC50 vs wild-type GT1a” value ([8]; mutant R155W) was 0.7 fold, the “fold change in EC50 vs wild-type GT1a” value ([8]; mutant R155k + Q30H) was 0.6 fold and the “fold change in EC50 vs wild-type GT1b” value ([9]; mutant A156D) was 0.4 fold. For the same compound, the “fold change in EC50 vs wild-type GT1b” value ([9]; mutant A156G) was 0.6 fold, the “fold change in EC50 vs wild-type GT1b” value ([9]; mutant A156T) was 0.9 fold and the “fold change in EC50 vs wild-type GT1b” value ([9]; mutant A156V) was 0.6 fold. For the same compound, the “fold change in EC50 vs wild-type GT1b” value ([9]; mutant D168A) was 1.0 fold, the “fold change in EC50 vs wild-type GT1b” value ([9]; mutant D168E) was 1.0 fold and the “fold change in EC50 vs wild-type GT1b” value ([9]; mutant D168E + L31V + Y448H) was 1.1 fold. The “fold change in EC50 vs wild-type GT1b” value ([9]; mutant D168E + Y93H + Y448H) was 0.9 fold, the “fold change in EC50 vs wild-type GT1b” value ([9]; mutant D168E + Y448H) was 0.7 fold and the “fold change in EC50 vs wild-type GT1b” value ([9]; mutant D168G) was 0.7 fold. For the same compound, the “fold change in EC50 vs wild-type GT1b” value ([9]; mutant D168H) was 1.7 fold, the “fold change in EC50 vs wild-type GT1b” value ([9]; mutant D168H + C445F) was 0.5 fold and the “fold change in EC50 vs wild-type GT1b” value ([9]; mutant D168L + C445F) was 0.3 fold. For the same compound, the “fold change in EC50 vs wild-type GT1b” value ([9]; mutant D168N) was 1.2 fold, the “fold change in EC50 vs wild-type GT1b” value ([9]; mutant D168T) was 1.4 fold and the “fold change in EC50 vs wild-type GT1b” value ([9]; mutant D168V) was 0.9 fold. The “fold change in EC50 vs wild-type GT1b” value ([9]; mutant D168V + C445F) was 0.7 fold, the “fold change in EC50 vs wild-type GT1b” value ([9]; mutant D168V + L31V + Y448H) was 0.6 fold and the “fold change in EC50 vs wild-type GT1b” value ([9]; mutant D168V + Y93H + Y448H) was 0.8 fold. The “fold change in EC50 vs wild-type GT1b” value ([9]; mutant D168V + Y448H) was 0.9 fold, the “fold change in EC50 vs wild-type GT1b” value ([9]; mutant D168Y) was 0.5 fold and the “fold change in EC50 vs wild-type GT1b” value ([9]; mutant L31V + D168E) was 1.6 fold. The “fold change in EC50 vs wild-type GT1b” value ([9]; mutant L31V + D168V) was 1.1 fold, the “fold change in EC50 vs wild-type GT1b” value ([9]; mutant R155C) was 0.8 fold and the “fold change in EC50 vs wild-type GT1b” value ([9]; mutant R155G) was 0.2 fold. For the same compound, the “fold change in EC50 vs wild-type GT1b” value ([9]; mutant R155K) was 0.6 fold, the “fold change in EC50 vs wild-type GT1b” value ([9]; mutant R155L) was 0.7 fold and the “fold change in EC50 vs wild-type GT1b” value ([9]; mutant R155Q) was 0.8 fold. The “fold change in EC50 vs wild-type GT1b” value ([9]; mutant R155W) was 0.5 fold, the “fold change in EC50 vs wild-type GT1b” value ([9]; mutant Y93H + D168E) was 1.3 fold and the “fold change in EC50 vs wild-type GT1b” value ([9]; mutant Y93H + D168V) was 1.0 fold. The susceptibility of mutants [4, 11] was “full susceptibility”, the susceptibility of mutants [4, 12] was “susceptible” and the “Antagonism Volume (cytotoxicity)” value ([6]; in combination with Ribavirin) was −1 ± 2 μM^2%. The “Interaction (cytotoxicity)” value ([6]; in combination with Ribavirin) was “Additivity (Additivity: ≦25 and >−25 nM^2%)” and the “Synergy Volume (cytotoxicity)” value ([6]; in combination with Ribavirin) was 4 ± 3 μM^2%.
In the case of `NC(=O)c1ncn([C@@H]2O[C@H](CO)[C@@H](O)[C@H]2O)n1` [Ribavirin, 1-β-D-ribofuranosyl-1H-1,2,4-Triazole-3-carboxamide, reference compound], the EC50 (HCV genotype 1a replicon [1]) is reported as 36.5 ± 17.5 µM, the CC50 at 3 days [2] is reported as > 88.8 µM and the “Antagonism Volume” value (GT-1b Huh-lunet cells) is reported as −12 ± 9 nM^2. The Interaction (GT-1b Huh-lunet cells) was “Additive”, the “Synergy Volume” value (GT-1b Huh-lunet cells) was 12 ± 8 nM^2 and the “Antagonism Volume” value (HCV 1b replicon system) was −0.5 ± 0.1 nM^2. For the same compound, the Interaction (HCV 1b replicon system) was “Moderate Synergy”, the “Synergy Volume” value (HCV 1b replicon system) was 61 nM^2 and 61 ± 0.5 nM^2 and the susceptibility of mutants [4, 11] was “full susceptibility”. The susceptibility of mutants [4, 12] was “susceptible”, the steady-state plasma concentration [10] was 6 to 11 µM and the “Antagonism Volume” value (HCV genotype 1a replicon [7]) was −43 nM^2% and −43 ± 20 nM^2%. For the same compound, the “Synergy Volume” value (HCV genotype 1a replicon [7]) was 1 ± 1 nM^2%.
